Where a name gives a salt, the structure may show the parent alone. Read-outs that look alike come from different tables or passages of the source.
Columns and labels:
Format in all cases: in vivo, human
[1] = system: genital herpes simplex virus (HSV) infection; conditions: for recurrences prevented or delayed / recurrences experienced by placebo patients prevented or delayed: 52 weeks; for safety profiles (valaciclovir, aciclovir and placebo compared): in vivo
From the text: Objective: To determine the efficacy and safety of 4 doses of oral valaciclovir compared with aciclovir and placebo for the suppression of genital herpes in otherwise healthy patients.
Methods: This study was a multi-centre, international, six-arm, parallel group, randomised, double-blind comparison of the efficacy and safety of 4 doses of oral valaciclovir with oral aciclovir and placebo for the suppression of recurrent episodes of genital herpes simplex virus (HSV) infection in immunocompetent patients. A total of 1279 patients with a history of recurrent genital herpes were randomised into one of 6 treatment arms with a 2:2:2:2:2:1 treatment allocation and followed for 52 weeks. Patients visited the clinic at monthly intervals and on Days 1 and 5 of a genital HSV recurrence. Safety was assessed by adverse experience reporting at each visit and by clinical chemistry and haematology testing every 3 or 6 months respectively.
274 patients received 250 mg twice daily valaciclovir (reference example); 269 patients received 1000 mg once daily valaciclovir; 266 patients received 500 mg once daily valaciclovir; 269 patients received 250 mg once daily valaciclovir; 267 patients received 400 mg twice daily aciclovir; and 134 patients received placebo.

[2] = system: frequently recurrent genital herpes; assay: double blind, placebo controlled multicentre clinical trial of once daily suppressive therapy; conditions: 500 mg once daily
Protocol: In another study once daily valaciclovir (as the hydrochloride salt), was evaluated as suppressive therapy in a double blind, placebo controlled multicentre clinical trial in otherwise healthy immunocompetent patients with frequently recurrent genital herpes. A total of 382 patients with a history of >8 genital herpes recurrences per year were randomised (3:1) to treatment with once daily valaciclovir (500 mg) or placebo for 16 weeks. Patients experiencing a recurrence discontinued double blind therapy and received open label episodic valaciclovir (500 mg twice daily) for 5 days. They then continued on open label daily valaciclovir, as did those completing the 16 week double blind phase of study without evidence of a breakthrough recurrence, for a total of 48 weeks. Patients were assessed 4-weekly (double blind phase) and every 8 weeks thereafter. The primary efficacy end-point was time to first genital herpes recurrence.

recurrent genital herpes = assay: open-label 1-year study of suppressive therapy in patients previously on chronic acyclovir suppression
Protocol: OBJECTIVE: To document the number of genital herpes outbreaks during a 1-year period of suppressive therapy with valaciclovir hydrochloride in patients previously receiving chronic suppressive therapy with acyclovir. METHODS: A total of 127 patients (81 Males, 46 Females) from 11 study sites enrolled in this open-label study. […] Upon discontinuation of acyclovir, patients received 500 mg valaciclovir hydrochloride once daily. For any genital herpes recurrence, patients self-initiated treatment with valaciclovir hydrochloride 500 mg twice daily for 5 days, then resumed once daily therapy. Patients documented recurrences in a diary and returned to the clinic every three months for drug safety and recurrence evaluation.

[3] = 250 mg twice daily (reference example)
[4] = 400 mg twice daily, entire tenth study year of acyclovir suppression

For `CC(C)[C@H](N)C(=O)OCCOCn1cnc2c(=O)[nH]c(N)nc21` [valaciclovir, 2-[(2-amino-1,6-dihydro-6-oxo-9H-purin-9-yl)methoxy]ethyl L-valinate], the “patients remained recurrence-free during the study period” value ([1]; 250 mg once daily, 12 months) was 22%, the “recurrences prevented or delayed” value ([1]; 250 mg once daily) was 54% and the “patients recurrence-free after 12 months” value [1, 3] was “approximately half”. For the same compound, the “recurrences experienced by placebo patients prevented or delayed” value (from here on “recurrences experienced”) [1, 3] was 78-79%, the “patients recurrence-free at 12 months” value ([1]; 500 mg once daily) was “Forty” and the “recurrences prevented or delayed” value ([1]; 500 mg once daily) was 71%. The “patients recurrence-free after 12 months” value ([1]; 1000 mg once daily) was “approximately half”, the “recurrences experienced” value ([1]; 1000 mg once daily) was 78-79% and the “safety profiles (valaciclovir, aciclovir and placebo compared)” value [1] was “similar”. The “reduction in recurrence rate relative to placebo” value ([2]; 16 weeks, intent-to-treat population) was 85% and the tolerability ([2]; adverse events infrequent and generally mild) was “well tolerated”.

For `CC(C)[C@H](N)C(=O)OCCOCn1cnc2c(=O)[nH]c(N)nc21` [valaciclovir hydrochloride, 2-[(2-amino-1,6-dihydro-6-oxo-9H-purin-9-yl)methoxy]ethyl-L-valinate hydrochloride], the “total recurrence free rate” value (recurrent genital herpes; 500 mg once daily, after six months of suppressive therapy (93 of 126 patients)) was 74%, the “patients remained free of recurrences” value (recurrent genital herpes; 500 mg once daily, after the first three months of suppressive therapy (102 of 126 patients)) was 81% and the “patients remained free of recurrences” value (recurrent genital herpes; 500 mg once daily, following the next three months of suppressive therapy (101 of 119 patients)) was 85%. The tolerability (recurrent genital herpes; 500 mg once daily, for 6 months) was “well tolerated”.

In the case of `Nc1nc2c(ncn2COCCO)c(=O)[nH]1` [acyclovir, 9-[(2-hydroxyethoxy)methyl]guanine, reference compound], the “patients recurrence-free after 12 months” value ([1]; 400 mg twice daily) is reported as “approximately half”, the “recurrences experienced” value ([1]; 400 mg twice daily) is reported as 78-79% and the “safety profiles (valaciclovir, aciclovir and placebo compared)” value [1] is reported as “similar”. The “mean quarterly recurrence free rate” value (recurrent genital herpes; [4]) was 89% and the “yearly recurrence free rate” value (recurrent genital herpes; [4]) was 75%.

Reference: patent EP0874631B1, “USE OF VALACICLOVIR FOR THE MANUFACTURE OF A MEDICAMENT FOR THE TREATMENT OF GENITAL HERPES BY A SINGLE DAILY APPLICATION” (priority 1996, dated 1997)
